Values quoted from earlier work as cited in US4405354A, “Elimination of odors from waste material” (priority 1980, dated 1983).
Read-outs that look alike come from different tables or passages of the source.

## N [aqueous ammonia]
0 °C
  Kb: 1.374 × 10^-5
5 °C
  Kb: 1.479 × 10^-5
10 °C
  Kb: 1.570 × 10^-5
15 °C
  Kb: 1.652 × 10^-5
20 °C
  Kb: 1.710 × 10^-5
25 °C
  Kb: 1.774 × 10^-5
30 °C
  Kb: 1.820 × 10^-5
35 °C
  Kb: 1.849 × 10^-5
40 °C
  Kb: 1.862 × 10^-5
45 °C
  Kb: 1.879 × 10^-5
50 °C
  Kb: 1.892 × 10^-5
